In brackets after ≈: the same amount, converted by molar mass. Several values for one entry are separate records, joined by “and”; a condition that tells them apart may be missing. Equal values may be shown once.
Experiments:
K. pneumoniae = test: Growth with or without TMI supplementation and fluorofolin, K. pneumoniae; format: cell-based, Klebsiella pneumoniae; details: fluorofolin 2X MIC
Protocol: (§1) Where listed, growth media were prepared according manufacturer recommendations: LB broth and LB broth supplemented with 0.3 mM thymine (BD Biosciences 244610, Alfa Aesar A15879), 0.3 mM methionine (Sigma-Aldrich M9625), 0.3 mM inosine (EMD Millipore 4060), cation-adjusted Mueller–Hinton II broth (CAMHB) (BD 212322) or 0.3 mM thymidine (Sigma-Aldrich T1895), Gutnick minimal media (1.0 g l^−1 K2SO4, 13.5 g l^−1 K2HPO4, 4.7 g l^−1 KH2PO4, 0.1 g l^−1 MgSO4·7H2O, 10 mM NH4Cl as a nitrogen source and 0.4% w/v glucose as a carbon source)[65].
(§2) Extended Data Fig. 3 TMI supplementation can also rescue other species from fluorofolin DHFR inhibition. […] (f) P. aeruginosa PA14 or E. coli lptd4213 treated with fluorofolin 50 μg/mL in the presence or absence of 0.3 mM thymidine. (g) E. coli lptd4213 treated with fluorofolin 50 μg/mL and SMX (78.1 μg/mL) in the presence or absence of 0.3 mM thymidine or 0.3 mM TMI supplementation, Curves represent average optical at 600 nm (OD600) of 2 biological replicates. Means are shown. Source data

[1] = system: Acinetobacter baumannii BAA-125; test: MIC against A. baumannii BAA-125 in LB broth; format: cell-based; details: BAA125, 16 h, 37 °C, OD600
Protocol: (§3) Overnight cultures were diluted 1:150 in LB broth and added to a 96-well plate. Antibiotics were serially diluted 1:2 and added to columns of the 96-well plate and grown at 37 °C with continuous shaking. Cell growth was measured using optical density at 600 nm (OD600). MIC assays were performed in either BioTek Synergy HT or Tecan InfiniteM200 Pro microplate readers.

ESKAPE pathogens = test: Growth inhibition of P. aeruginosa PA01, ATTC 27853 and ESKAPE pathogens (MIC panel); format: cell-based; details: P. aeruginosa PA01 and ATTC 27853 and all 5 ESKAPE pathogens tested
Protocol: as §3
(§4) Bacterial colonies (4–8) of strains of interest were vortexed in saline and adjusted to an OD600 of 0.2. Strains were diluted 1:200 into CAMHB media in 96-well plates. Antibiotics were serially diluted 1:3 in DMSO, and 1 μl of each dilution was added to bacteria. The plates were incubated for 18–20 h at 37 °C before observation.

[2] = system: Staphylococcus aureus NRS384; test: MIC (WuXi, Mueller–Hinton broth) against S. aureus NRS384; format: cell-based
Protocol: as §4

S. aureus USA300 = test: Growth with or without TMI supplementation and fluorofolin, S. aureus USA300; format: cell-based, Staphylococcus aureus; details: fluorofolin 2X MIC
Protocol: as §1, §2

[3] = system: Staphylococcus aureus USA300; test: MIC against S. aureus USA300 in LB broth; format: cell-based; details: USA300, 16 h
Protocol: as §3

P. aeruginosa PA14 [4] = test: Growth competition assay, c.f.u. of P. aeruginosa PA14; format: cell-based, Pseudomonas aeruginosa
Protocol: Cultures of each species were grown separately as well as being mixed 1:1. […] The number of colonies on Pseudomonas Selection Agar plates is reported as the c.f.u. ml^−1 of P. aeruginosa. To calculate c.f.u.s ml^−1 of E. coli MG1655, c.f.u.s ml^−1 were determined from LB agar plates and the c.f.u.s ml^−1 of P. aeruginosa were subtracted from these values.

P. aeruginosa PA14 [5] = test: Colony-forming units counting after antibiotic treatment; format: cell-based, Pseudomonas aeruginosa; details: for PA14 CFU/mL, Mean: 2× MIC (fluorofolin 6.2, TMP 250, polymixin B 4 μg ml^−1)
Protocol: P. aeruginosa PA14 overnight cultures were diluted 1:100 and grown to exponential phase (OD600 = 0.4–0.6). Cultures were diluted 1:10 and treated with antibiotic. At each time point, 150 μl of culture was removed, serial diluted 1:10 six times and plated onto LB agar plates. Plates were grown overnight at 37 °C, after which visible colonies were counted. C.f.u.s ml^−1 are reported from dilutions in which ~10–100 single colonies were visible.

[6] = system: Enterobacter cloacae ATCC BAA-1143; test: MIC against E. cloacae in LB broth; format: cell-based; details: ATCCBAA1143, 16 h
Protocol: as §3

Haemolysis = format: cell-based, sheep; details: sheep, defibrinated sheep red blood cells, 1 h, vs Triton X-100 100% lysis
Protocol: (§5) Samples were treated at 37 °C with shaking for 1 h and then centrifuged. Supernatants were collected and absorbances were measured at 405 nm in a Tecan InfiniteM200 Pro microplate reader.

sheep red blood cells = test: Haemolysis; format: cell-based; details: biologically relevant concentrations
Protocol: as §5

P. aeruginosa PA14 [7] = test: In vivo PA14 murine thigh infection; details: neutropenic CD-1 mice, 24 h post infection; fluorofolin 25 mg kg^−1 subcutaneous and/or SMX 100 mg kg^−1 intraperitoneal at 1 and 12 h; one value per mouse
From the text: For P. aeruginosa thigh infection model and maximum tolerated dose (MTD) studies, care and handling of female 5–6-week-old CD-1 conformed to Institutional Animal Care and Use Committee (IACUC) policies as carried out at the University of North Texas Health Science Center (Fort Worth, Texas) under UNTHSC IACUC-approved protocol nos. IACUC-2021-0003 and IACUC-2020-0039. Rodents were fed either base chow (Envigo) or base diet supplemented with 1.8 g kg^−1 thymidine (Sigma T9250) starting at 2 days before infection. All procedures were conducted in accordance with the UNTHSC IACUC-approved protocol. Animals were housed in rooms undergoing 10–15 air changes per hour. Air provided to the animal rooms was controlled for temperature and humidity and is fully monitored 24 h a day. Air pressure was balanced according to room use. Lighting was controlled in individual rooms by automatic timers with a standard 12 h on, 12 h off cycle.
Female 5–6-week-old CD-1 mice were rendered neutropenic by intraperitoneal cyclophosphamide treatment (Cytoxan) before this study. On day 0, mice were infected intramuscularly with 5.33 log c.f.u. per thigh PA14. Mice were treated subcutaneously with fluorofolin at 1 and 12 h post infection. For co-treatment, mice were treated with SMX intraperitoneally at 1 and 12 h post infection. […] In vivo efficacy was evaluated by the UNTHSC.

In the case of `Nc1nc(N)c2c(ccc3c2ccn3Cc2ccnc(F)c2)n1` [fluorofolin], the “rescue of growth inhibition by TMI supplementation” value (K. pneumoniae) is reported as “could also be rescued from fluorofolin growth inhibition by TMI supplementation”, the MIC [1] is reported as 31.2 µg/mL and the concentration inhibiting growth (ESKAPE pathogens) is reported as “less than 50 µg ml^−1”. For the same compound, the MIC [2] was 0.03 µg/mL (≈ 0.0973 µM), the “rescue of growth inhibition by TMI supplementation” value (S. aureus USA300) was “could also be rescued from fluorofolin growth inhibition by TMI supplementation” and the MIC [3] was 0.4 µg/mL. The “growth in co-culture with TMI supplementation” value (P. aeruginosa PA14 [4]; PA14 : E. coli MG1655 1:1, 50 μg ml^−1 fluorofolin, selective plating) was “selectively inhibited the growth of P. aeruginosa”, the “P. Aeruginosa PA14 CFU/mL” value (P. aeruginosa PA14 [4]; Panel C, Fluorofolin) was 39 CFU/mL and 46 CFU/mL and 40 CFU/mL and the “type of antibacterial activity” value (P. aeruginosa PA14 [5]; PA14, rich media) was “bacteriostatic”. For the same compound, the “PA14 CFU/mL, Mean” value (P. aeruginosa PA14 [5]; Time 0 h) was 197000 CFU/mL, the “PA14 CFU/mL, Mean” value (P. aeruginosa PA14 [5]; Time 1 h) was 211000 CFU/mL and the “PA14 CFU/mL, Mean” value (P. aeruginosa PA14 [5]; Time 2 h) was 171000 CFU/mL. For the same compound, the “PA14 CFU/mL, Mean” value (P. aeruginosa PA14 [5]; Time 4 h) was 206667 CFU/mL, the MIC [6] was 12.5 µg/mL and the hemolysis at 1 h, 0.78125 ug/mL (Haemolysis; 0.78125 ug/mL) was 0.966%. It also gave a hemolysis at 1 h, 1.5625 ug/mL (Haemolysis; 1.5625 ug/mL) of 0.655%, a hemolysis at 1 h, 3.125 ug/mL (Haemolysis; 3.125 ug/mL) of -0.334% and a hemolysis at 1 h, 6.25 ug/mL (Haemolysis; 6.25 ug/mL) of 0.353%. The hemolysis at 1 h, 12.5 ug/mL (Haemolysis; 12.5 ug/mL) was -0.799%, the hemolysis at 1 h, 25 ug/mL (Haemolysis; 25 ug/mL) was -0.239% and the hemolysis at 1 h, 50 ug/mL (Haemolysis; 50 ug/mL) was 13.7%. The “permeabilization of red blood cell membranes” value (sheep red blood cells) was “did not cause significant permeabilization” and the “PA14 load in thigh” value (P. aeruginosa PA14 [7]) was 9.3 log 10(CFU/ mouse) and 9.24 log 10(CFU/ mouse) and 9.05 log 10(CFU/ mouse) and 9.1 log 10(CFU/ mouse).

From paper PMC11087268, “A folate inhibitor exploits metabolic differences in Pseudomonas aeruginosa for narrow-spectrum targeting” (Nature Microbiology, 2024)
